Measured values reported in the Kinase Knowledgebase extract (Sharma et al. 2016).
Values joined by “and” are separate entries in the source; they are usually repeats but may differ in a detail not shown here. Equal entries are not always repeated.

Molecular target: PIK3CG (human) (UniProt P48736)
Assay: Inhibition of PIK3CG Kinase Activity

Chain of PIK3CG (human) (P48736 whole entry, looked up): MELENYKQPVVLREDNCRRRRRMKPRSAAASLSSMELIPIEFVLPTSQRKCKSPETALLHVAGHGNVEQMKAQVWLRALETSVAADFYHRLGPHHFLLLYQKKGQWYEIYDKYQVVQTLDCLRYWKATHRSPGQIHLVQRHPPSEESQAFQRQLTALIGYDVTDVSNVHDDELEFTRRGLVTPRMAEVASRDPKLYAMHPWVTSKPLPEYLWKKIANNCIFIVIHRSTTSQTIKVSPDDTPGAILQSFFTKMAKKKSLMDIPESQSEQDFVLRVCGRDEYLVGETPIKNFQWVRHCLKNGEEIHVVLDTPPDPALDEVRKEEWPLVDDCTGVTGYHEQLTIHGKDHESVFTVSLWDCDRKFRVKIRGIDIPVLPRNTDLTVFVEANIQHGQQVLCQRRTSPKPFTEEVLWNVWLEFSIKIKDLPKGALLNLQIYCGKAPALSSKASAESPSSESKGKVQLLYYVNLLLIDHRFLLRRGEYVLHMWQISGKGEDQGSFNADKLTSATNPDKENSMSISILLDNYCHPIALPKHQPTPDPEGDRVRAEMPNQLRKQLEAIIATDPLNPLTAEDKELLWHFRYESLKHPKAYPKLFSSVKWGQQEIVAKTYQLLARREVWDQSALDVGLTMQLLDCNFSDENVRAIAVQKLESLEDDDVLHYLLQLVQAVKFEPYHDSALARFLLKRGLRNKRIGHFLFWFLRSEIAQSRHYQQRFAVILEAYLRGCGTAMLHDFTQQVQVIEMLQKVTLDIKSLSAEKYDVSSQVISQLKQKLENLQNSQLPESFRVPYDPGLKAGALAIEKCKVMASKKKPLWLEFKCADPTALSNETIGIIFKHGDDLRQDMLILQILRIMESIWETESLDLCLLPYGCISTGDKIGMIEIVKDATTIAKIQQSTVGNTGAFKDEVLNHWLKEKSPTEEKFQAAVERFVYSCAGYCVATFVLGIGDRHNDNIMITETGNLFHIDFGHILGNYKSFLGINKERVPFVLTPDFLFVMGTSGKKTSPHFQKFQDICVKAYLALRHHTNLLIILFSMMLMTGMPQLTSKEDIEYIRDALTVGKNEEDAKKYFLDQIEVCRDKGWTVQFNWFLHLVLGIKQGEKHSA

Compared with `Cc1cc(NCc2ccccc2)c2nc(N3CCOCC3)cc(=O)n2c1`, `CC1(C)CCN(C(=O)c2ccc(NC(=O)Nc3ccc(-c4nc(O[C@H]5CCOC5)nc(N5CCOCC5)n4)cc3)cc2)CC1` is lower in IC50: > 10000 nM for the first, 7.2 nM for the second. The second is the more potent here.

First: CC(=O)Nc1nc(C)c(-c2csc(NCCC(N)=O)n2)s1
Second: COc1cc2sc(C(=O)Nc3nnn[nH]3)c(OCC3(C)COC3)c2cc1OC
The IC50 of the first is 7-fold lower: 64 nM for the first, 445 nM for the second.

First: CCn1c(C(=O)Nc2nnn[nH]2)c(-c2ccccc2)c2cc(OC)c(OC)cc21
Second: COc1ccc(OC)c(Nc2nc3ccccc3nc2NS(=O)(=O)c2cccc(C#N)c2)c1
The IC50 of the first is 15-fold higher: 6600 nM for the first, 430 nM for the second.

`COc1cc(Nc2nc3ccccc3nc2NS(=O)(=O)c2ccc(CN(C)C)cc2)cc(OC)c1` was tested, and the IC50 was 27 nM.

For `CC1(C)CCN(C(=O)c2ccc(NC(=O)Nc3ccc(-c4nc(O[C@H]5CCOC5)nc(N5CCOCC5)n4)cc3)cc2)CC1`, the Kd was 6.5 nM.

Molecular target: MAPK14 (human) (UniProt Q16539)
Assay: Assessment of MAPK14 Kinase Activity

Chain of MAPK14 (human) (Q16539 whole entry, looked up): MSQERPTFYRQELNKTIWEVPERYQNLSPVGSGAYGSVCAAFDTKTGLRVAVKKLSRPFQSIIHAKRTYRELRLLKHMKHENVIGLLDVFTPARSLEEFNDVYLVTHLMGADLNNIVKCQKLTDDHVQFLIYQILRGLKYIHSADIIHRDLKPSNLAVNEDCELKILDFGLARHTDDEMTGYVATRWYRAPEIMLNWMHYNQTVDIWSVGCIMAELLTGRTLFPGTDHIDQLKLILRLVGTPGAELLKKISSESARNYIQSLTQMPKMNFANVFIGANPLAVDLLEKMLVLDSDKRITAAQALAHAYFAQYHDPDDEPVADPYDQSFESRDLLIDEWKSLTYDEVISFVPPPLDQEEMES

For `CSc1nc(-c2ccc(F)cc2)c(-c2ccncc2)[nH]1`, the IC50 was 69 nM and 70 nM.

Molecular target: PIK3CA (human) (UniProt P42336)
Assay: Assessment of PIK3CA Kinase Activity

Chain of PIK3CA (human) (P42336 whole entry, looked up): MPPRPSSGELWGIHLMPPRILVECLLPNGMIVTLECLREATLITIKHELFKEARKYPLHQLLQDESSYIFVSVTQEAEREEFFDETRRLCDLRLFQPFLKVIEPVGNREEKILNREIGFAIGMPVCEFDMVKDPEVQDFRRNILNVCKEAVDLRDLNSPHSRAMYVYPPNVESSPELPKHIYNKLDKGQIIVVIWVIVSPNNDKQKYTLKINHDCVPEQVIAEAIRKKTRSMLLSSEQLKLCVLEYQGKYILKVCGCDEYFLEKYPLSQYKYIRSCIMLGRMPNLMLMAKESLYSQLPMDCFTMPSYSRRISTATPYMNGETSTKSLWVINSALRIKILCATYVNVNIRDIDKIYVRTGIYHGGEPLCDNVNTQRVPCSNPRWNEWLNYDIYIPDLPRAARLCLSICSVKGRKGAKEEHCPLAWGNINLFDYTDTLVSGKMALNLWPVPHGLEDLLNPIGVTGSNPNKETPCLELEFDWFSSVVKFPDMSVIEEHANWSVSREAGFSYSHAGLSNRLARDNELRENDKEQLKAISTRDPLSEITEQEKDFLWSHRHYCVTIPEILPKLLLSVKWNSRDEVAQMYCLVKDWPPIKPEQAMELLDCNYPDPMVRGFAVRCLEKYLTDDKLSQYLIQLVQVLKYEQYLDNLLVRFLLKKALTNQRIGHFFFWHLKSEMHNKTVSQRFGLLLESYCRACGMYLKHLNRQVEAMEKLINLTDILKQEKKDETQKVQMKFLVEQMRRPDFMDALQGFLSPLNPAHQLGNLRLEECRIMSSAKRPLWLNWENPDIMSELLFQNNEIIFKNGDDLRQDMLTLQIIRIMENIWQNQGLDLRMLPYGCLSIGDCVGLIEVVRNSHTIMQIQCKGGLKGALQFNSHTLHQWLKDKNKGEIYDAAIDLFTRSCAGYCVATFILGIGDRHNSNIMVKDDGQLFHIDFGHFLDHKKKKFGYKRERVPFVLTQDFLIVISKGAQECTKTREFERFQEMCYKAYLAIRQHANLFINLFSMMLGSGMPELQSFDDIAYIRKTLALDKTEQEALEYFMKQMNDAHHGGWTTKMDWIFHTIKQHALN

Going from `CCC1(O)CCN(c2ncnc(C)c2C#Cc2ccc(N)nc2)CC1` to `CCc1ncnc(N2CCC3(CCN(C)CC3)CC2)c1C#Cc1ccc(N)nc1`, the IC50 rises from 15 nM to 136 nM (9.1-fold).

Compared with `CC(C)(C)COC(=O)NCc1ccc(NC(=O)Nc2ccc(-c3nc(CS(C)(=O)=O)cc(N4CC5CCC(C4)O5)n3)cc2)cc1`, `Cc1nc(N)nc(-c2c(Nc3ccn[nH]3)nc3ccc(CCC(O)CO)cn23)n1` (stereo not given) is 11-fold lower in IC50: 1930 nM for the first, 170 nM for the second.

First: CCOC(=O)N1CCC(n2ncc3c(N4CCO[C@@H](C)C4)nc(-c4ccc(NC(=O)NCCF)cc4)nc32)CC1
Second: NCCC1CCN(c2nc(N3CCOCC3)cc(-n3c(C(F)F)nc4ccccc43)n2)CC1
The IC50 of the first is 2.6-fold higher: 521 nM for the first, 200 nM for the second. The second is the more potent here.

Going from `Cc1ncnc(N2CCC(=O)CC2)c1C#Cc1ccc(N)nc1` to `Cc1ncnc(N2CCC(C)(O)CC2)c1C#Cc1ccc(N)nc1`, the IC50 falls from 104 nM to 38 nM (2.7-fold).

First: O=C(Nc1cccc(-c2cc(N3CCOCC3)nc(-c3cccc(CO)c3)n2)c1)N1CCNCC1
Second: CCOC(=O)N1CCC(n2ncc3c(N4CCO[C@H](C)C4)nc(-c4ccc(NC(=O)Nc5ccncc5)cc4)nc32)CC1
The IC50 of the first is 1.7-fold lower: 300 nM for the first, 517 nM for the second.

Going from `Cc1nc(NCC(=O)N(C)C)cc(-c2c(Nc3ccn(C)n3)nc3cccnn23)n1` to `NCC(=O)N1CC=C(c2cc(N3CCOCC3)nc(-n3c(C(F)F)nc4ccccc43)n2)CC1`, the IC50 falls from 20100 nM to 100 nM (200-fold). The second is the more potent here.

First: COc1cccc2c1nc(C(F)F)n2-c1nc(N2CCOCC2)cc(N2CCN(C(=O)CN)CC2)n1
Second: NCC(=O)N1CCC(c2cc(N3CCOCC3)nc(-n3c(C(F)F)nc4ccccc43)n2)CC1
The IC50 of the first is 15-fold lower: 20 nM for the first, 300 nM for the second. The first is the more potent here.

First: O=C(Nc1cccc(-c2cc(N3CCOCC3)nc(-c3cccc(CO)c3)n2)c1)C1CCNCC1
Second: OCc1cccc(-c2cc(-n3c(C(F)F)nc4ccccc43)nc(N3CCOCC3)n2)c1
The IC50 of the first is 3-fold lower: 100 nM for the first, 300 nM for the second. The first is the more potent here.

`NCc1ccc(NC(=O)c2cccc(-c3cc(N4CCOCC4)nc(-c4cccc(CO)c4)n3)c2)cc1` and `Cn1c(=NC#N)n(-c2ccc(C(C)(C)C#N)nc2)c2c3cc(-c4ccnc(N5CCOCC5)c4Cl)ccc3ncc21` cannot be ordered by IC50: 100 nM for the first, 10 to 1000 nM for the second.

Compared with `Nc1ncc(-c2nc(N3CCOCC3)nc3c2CCN3c2ccc(CN3CCN(CCCCF)CC3)cc2)cn1`, `CN(C(=O)c1cc2c(s1)-c1ccccc1OC2)c1ccccc1F` is 13-fold higher in IC50: 20 nM for the first, 254 nM for the second.

First: O=C(Nc1ccc(-c2cc(-n3c(C(F)F)nc4ccccc43)nc(N3CCOCC3)n2)cc1)[C@@H]1CCCCN1
Second: CCOC1CCN(c2ncnc(CC)c2C#Cc2ccc(N)nc2)CC1
The IC50 of the first is 30-fold higher: 2300 nM for the first, 77 nM for the second. The second is the more potent here.

Compared with `COc1cccc(Nc2nc(-c3cccc4[nH]nc(N)c34)nc3c2cnn3C)c1OC`, `O=C(Nc1ccc(F)cc1)Nc1ccc(-c2nc(N3CCOCC3)nc(N3C4CCC3COC4)n2)cc1` is 3.5-fold higher in IC50: 11 nM for the first, 39 nM for the second. The first is the more potent here.

Going from `COc1cccc(Nc2nc(-c3cccc4onc(N)c34)nc3c2cnn3C)c1OC` to `CCc1ncnc(N2CCC(O)(CC)CC2)c1C#Cc1ccc(N)nc1`, the IC50 rises from 1.7 nM to 50 nM (29-fold).

Compared with `Cc1nc(N)cc(n1)C2=C(Nc3cc[nH]n3)NC4=N2N=CC=C4`, `CCOC(=O)N1CCC(n2ncc3c(N4CCO[C@H](C)C4)nc(-c4ccc(NC(=O)NCCF)cc4)nc32)CC1` is 5.5-fold higher in IC50: 830 nM for the first, 4550 nM for the second.

Compared with `CCNC(=O)Nc1ccc(-c2nc(N3CCO[C@H](C)C3)c3cnn(C4CCN(C(=O)OCC)CC4)c3n2)cc1`, `CCOC(=O)N1CCC(n2ncc3c(N4CCO[C@@H](C)C4)nc(-c4ccc(NC(=O)Nc5ccncc5)cc4)nc32)CC1` is 240-fold lower in IC50: 4360 nM for the first, 18 nM for the second.

Compared with `NC(=O)[C@@H]1CCCCN1C1CCN(c2nc(N3CCOCC3)cc(-n3c(C(F)F)nc4ccccc43)n2)CC1`, `NCC(=O)N1CCN(c2cc(N3CCOCC3)nc(-n3c(C(F)F)nc4ccccc43)n2)CC1` is 6-fold lower in IC50: 600 nM for the first, 100 nM for the second. The second is the more potent here.

First: O=C(Nc1cccc(-c2cc(N3CCOCC3)nc(-c3cccc(O)c3)n2)c1)C1CCCNC1 (stereo not given)
Second: NC(=O)[C@@H]1CCCN1CC(=O)N1CCN(c2nc(N3CCOCC3)cc(-n3c(C(F)F)nc4ccccc43)n2)CC1
The IC50 of the first is 2-fold lower: 100 nM for the first, 200 nM for the second. The first is the more potent here.

First: NC(=O)c1ccc(NC(=O)Nc2ccc(-c3cc(N4CC5CCC(C4)O5)nc(-c4ccc(NC(=O)Nc5ccc(C(N)=O)cc5)cc4)n3)cc2)cc1
Second: CS(=O)(=O)Cc1cc(N2CCOCC2)nc(-c2ccc(NC(=O)c3ccno3)cc2)n1
The IC50 of the first is lower: 44.5 nM for the first, > 100000 nM for the second. The first is the more potent here.

First: NCC(=O)N1CCN(c2nc(N3CCOCC3)cc(-n3c(C(F)F)nc4ccccc43)n2)CC1
Second: CCNC(=O)Nc1ccc(-c2nc(N3CCO[C@@H](C)C3)c3cnn(C4CCN(C(=O)OCC)CC4)c3n2)cc1
The IC50 of the first is 5.5-fold lower: 100 nM for the first, 553 nM for the second. The first is the more potent here.

First: NC(=O)[C@@H]1CCCN1C(=O)Nc1nc2ccc(-c3cnc(N)c(C(F)(F)F)c3)cc2s1
Second: COCCOc1cnc(Nc2cnc(Cl)c(NS(C)(=O)=O)c2)c(-c2nc(C)nc(N)n2)c1
The Ki of the first is 1.6-fold higher: 40 nM for the first, 25 nM for the second. The second binds more tightly here.

`Cc1nc(N)nc(-c2cc(Cl)cnc2Nc2cnc(Cl)c(NS(=O)(=O)N(C)C)c2)n1` showed a Ki of 12 nM.
